Reference: PubChem BioAssay (NCI)
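Each compound was tested at five concentrations against cells in 96-well plates for 48 hours. The concentration for full growth arrest is given as TGI.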

What was measured:
Experiment in all cases: NCI tumour cell line growth inhibition, 48 h
[1] = system: 786-0 renal
[2] = system: A549 NSCLC
[3] = system: ACHN renal
[4] = system: CCRF-CEM leukemia
[5] = system: COLO 205 colon
[6] = system: DU-145 prostate
[7] = system: EKVX NSCLC
[8] = system: HCC-2998 colon
[9] = system: HCT-15 colon
[10] = system: HL-60(TB) leukemia
[11] = system: HOP-62 NSCLC
[12] = system: HOP-92 NSCLC
[13] = system: HS 578T breast
[14] = system: HT29 colon
[15] = system: IGROV1 ovarian
[16] = system: K-562 leukemia
[17] = system: KM12 colon
[18] = system: M14 melanoma
[19] = system: MALME-3M melanoma
[20] = system: MCF7 breast
[21] = system: MDA-N
[22] = system: MOLT-4 leukemia
[23] = system: NCI-H226 lung
[24] = system: NCI-H23 lung
[25] = system: NCI-H460 lung
[26] = system: NCI-H522 lung
[27] = system: NCI/ADR-RES ovarian
[28] = system: OVCAR-5 ovarian
[29] = system: OVCAR-8 ovarian
[30] = system: PC-3 prostate
[31] = system: RPMI-8226 leukemia
[32] = system: SF-268 CNS
[33] = system: SF-295 CNS
[34] = system: SF-539 CNS
[35] = system: SK-MEL-28 melanoma
[36] = system: SK-MEL-5 melanoma
[37] = system: SN12C renal
[38] = system: SNB-19 CNS
[39] = system: SR leukemia
[40] = system: SW-620 colon
[41] = system: T-47D breast
[42] = system: TK-10 renal
[43] = system: U251 CNS
[44] = system: UACC-62 melanoma
[45] = system: UO-31 renal
[46] = system: A498 renal
[47] = system: HCT-116 colon
[48] = system: LOX IMVI melanoma
[49] = system: MDA-MB-231 breast
[50] = system: MDA-MB-435
[51] = system: OVCAR-3 ovarian
[52] = system: OVCAR-4 ovarian
[53] = system: RXF 393 renal
[54] = system: SK-MEL-2 melanoma
[55] = system: SK-OV-3 ovarian
[56] = system: SNB-75 CNS
[57] = system: UACC-257 melanoma
[58] = system: CAKI-1 renal

**Q.** Which results are given for `CCOC1CCC2C(CCC(/C=C/c3ccc(O)c4ncccc34)N2C)C1` (centres undefined)?
**A.** TGI [1]: > 100 µM; TGI [2]: > 100 µM; TGI [3]: > 100 µM; TGI [4]: > 100 µM; TGI [5]: 11.9 µM; TGI [6]: > 100 µM; TGI [7]: 90.4 µM; TGI [8]: > 100 µM; TGI [9]: > 100 µM; TGI [10]: > 100 µM; TGI [11]: > 100 µM; TGI [12]: 59.7 µM; TGI [13]: 51.6 µM; TGI [14]: > 100 µM; TGI [15]: > 100 µM; TGI [16]: > 100 µM; TGI [17]: 95.2 µM; TGI [18]: > 100 µM; TGI [19]: > 100 µM; TGI [20]: > 100 µM; TGI [21]: > 100 µM; TGI [22]: > 100 µM; TGI [23]: > 100 µM; TGI [24]: 66 µM; TGI [25]: > 100 µM; TGI [26]: 5.89 µM; TGI [27]: > 100 µM; TGI [28]: > 100 µM; TGI [29]: > 100 µM; TGI [30]: > 100 µM; TGI [31]: > 100 µM; TGI [32]: > 100 µM; TGI [33]: > 100 µM; TGI [34]: 29.2 µM; TGI [35]: > 100 µM; TGI [36]: > 100 µM; TGI [37]: > 100 µM; TGI [38]: > 100 µM; TGI [39]: > 100 µM; TGI [40]: > 100 µM; TGI [41]: 62 µM; TGI [42]: > 100 µM; TGI [43]: > 100 µM; TGI [44]: > 100 µM; TGI [45]: > 100 µM

**Q.** How did the TGI [1] turn out when `CC(=O)Oc1c(C)cc2c(c1C)C(C)CN2C(C)=O` (centres undefined) was run?
**A.** > 100 µM

**Q.** What about the TGI [46] of the same molecule?
**A.** > 100 µM

**Q.** And the TGI [2]?
**A.** > 100 µM

**Q.** What about the TGI [3] of the same molecule?
**A.** > 100 µM

**Q.** What about the TGI [4] of the same molecule?
**A.** > 100 µM

**Q.** What about the TGI [5] of the same molecule?
**A.** > 100 µM

**Q.** What about the TGI [6] of the same molecule?
**A.** > 100 µM

**Q.** And the TGI [7]?
**A.** > 100 µM

**Q.** And the TGI [8]?
**A.** > 100 µM

**Q.** And the TGI [47]?
**A.** > 100 µM

**Q.** What about the TGI [9] of the same molecule?
**A.** > 100 µM

**Q.** What about the TGI [10] of the same molecule?
**A.** > 100 µM

**Q.** What about the TGI [11] of the same molecule?
**A.** > 100 µM

**Q.** And the TGI [12]?
**A.** > 100 µM

**Q.** And the TGI [13]?
**A.** > 100 µM

**Q.** What about the TGI [14] of the same molecule?
**A.** > 100 µM

**Q.** And the TGI [15]?
**A.** > 100 µM

**Q.** What about the TGI [16] of the same molecule?
**A.** > 100 µM

**Q.** What about the TGI [17] of the same molecule?
**A.** > 100 µM

**Q.** And the TGI [48]?
**A.** > 100 µM

**Q.** And the TGI [18]?
**A.** > 100 µM

**Q.** And the TGI [20]?
**A.** > 100 µM

**Q.** And the TGI [49]?
**A.** > 100 µM

**Q.** What about the TGI [50] of the same molecule?
**A.** > 100 µM

**Q.** What about the TGI [21] of the same molecule?
**A.** > 100 µM

**Q.** What about the TGI [22] of the same molecule?
**A.** > 100 µM

**Q.** And the TGI [23]?
**A.** > 100 µM

**Q.** What about the TGI [24] of the same molecule?
**A.** > 100 µM

**Q.** And the TGI [25]?
**A.** > 100 µM

**Q.** And the TGI [26]?
**A.** > 100 µM

**Q.** And the TGI [27]?
**A.** > 100 µM

**Q.** And the TGI [51]?
**A.** > 100 µM

**Q.** And the TGI [52]?
**A.** > 100 µM

**Q.** What about the TGI [28] of the same molecule?
**A.** > 100 µM

**Q.** And the TGI [29]?
**A.** > 100 µM

**Q.** And the TGI [30]?
**A.** > 100 µM

**Q.** And the TGI [31]?
**A.** > 100 µM

**Q.** And the TGI [53]?
**A.** > 100 µM

**Q.** What about the TGI [32] of the same molecule?
**A.** > 100 µM

**Q.** What about the TGI [33] of the same molecule?
**A.** > 100 µM

**Q.** What about the TGI [34] of the same molecule?
**A.** > 100 µM

**Q.** What about the TGI [54] of the same molecule?
**A.** > 100 µM

**Q.** And the TGI [35]?
**A.** > 100 µM

**Q.** And the TGI [36]?
**A.** > 100 µM

**Q.** And the TGI [55]?
**A.** > 100 µM

**Q.** And the TGI [37]?
**A.** > 100 µM

**Q.** What about the TGI [38] of the same molecule?
**A.** > 100 µM

**Q.** And the TGI [56]?
**A.** > 100 µM

**Q.** And the TGI [40]?
**A.** > 100 µM

**Q.** What about the TGI [41] of the same molecule?
**A.** > 100 µM

**Q.** And the TGI [42]?
**A.** > 100 µM

**Q.** And the TGI [43]?
**A.** > 100 µM

**Q.** And the TGI [57]?
**A.** > 100 µM

**Q.** What about the TGI [44] of the same molecule?
**A.** > 100 µM

**Q.** What about the TGI [45] of the same molecule?
**A.** > 100 µM

**Q.** Which results are given for `CCOC(=O)C(=CNC(=S)c1ccncc1)C(=O)OCC`?
**A.** TGI [1]: > 100 µM; TGI [46]: > 100 µM; TGI [2]: > 100 µM; TGI [3]: > 100 µM; TGI [58]: > 100 µM; TGI [4]: > 100 µM; TGI [5]: > 100 µM; TGI [6]: > 100 µM; TGI [7]: > 100 µM; TGI [8]: > 100 µM; TGI [47]: > 100 µM; TGI [9]: > 100 µM; TGI [10]: > 100 µM; TGI [11]: > 100 µM; TGI [12]: > 100 µM; TGI [13]: > 100 µM; TGI [15]: > 100 µM; TGI [16]: > 100 µM; TGI [17]: > 100 µM; TGI [48]: > 100 µM; TGI [18]: > 100 µM; TGI [19]: > 100 µM; TGI [20]: > 100 µM; TGI [49]: > 100 µM; TGI [50]: > 100 µM; TGI [21]: > 100 µM; TGI [22]: > 100 µM; TGI [24]: > 100 µM; TGI [25]: > 100 µM; TGI [26]: > 100 µM; TGI [51]: > 100 µM; TGI [52]: > 100 µM; TGI [28]: > 100 µM; TGI [30]: > 100 µM; TGI [31]: > 100 µM; TGI [53]: > 100 µM; TGI [32]: > 100 µM; TGI [33]: > 100 µM; TGI [34]: > 100 µM; TGI [54]: > 100 µM; TGI [35]: > 100 µM; TGI [36]: > 100 µM; TGI [55]: > 100 µM; TGI [37]: > 100 µM; TGI [38]: > 100 µM; TGI [56]: > 100 µM; TGI [39]: > 100 µM; TGI [40]: > 100 µM; TGI [41]: > 100 µM; TGI [42]: > 100 µM; TGI [43]: > 100 µM; TGI [57]: > 100 µM; TGI [44]: > 100 µM; TGI [45]: > 100 µM
